Measured values from ChEMBL document CHEMBL3132770, “4-Aminocyclopentane-1,3-diols as platforms for diversity: synthesis of a screening library” (Medchemcomm, 2014).

Legend:
Format in all cases: functional, cell-based
[1] = Cytotoxicity against human LCLC-103H cells assessed as growth inhibition after 96 hrs by crystal violet staining assay
DAN-G = experiment: Cytotoxicity against human DAN-G cells assessed as growth inhibition after 96 hrs by crystal violet staining assay
MCF7 = experiment: Cytotoxicity against human MCF7 cells assessed as growth inhibition after 96 hrs by crystal violet staining assay; conditions: MCF7, 96 h
5637 = experiment: Cytotoxicity against human 5637 cells assessed as growth inhibition after 96 hrs by crystal violet staining assay; conditions: Homo sapiens, 5637, 96 h

Row | Structure (SMILES) | IC50 [1] | IC50 (DAN-G) | IC50 (MCF7) | IC50 5637
1 | O=C(CCC(=O)c1ccc(-c2ccccc2)cc1)N[C@@H]1C[C@H](OCc2ccccc2)C[C@H]1O (racemic) | > 20 µM | > 20 µM | 16 µM | > 20 µM
2 | O=C(CCC(=O)c1ccc(-c2ccccc2)cc1)N[C@H]1C[C@H](OCc2ccccc2)C[C@@H]1O (racemic) | > 20 µM | > 20 µM | 14.2 µM | 20.4 µM
3 | O=C(CCCc1c[nH]c2ccccc12)N[C@@H]1C[C@H](Oc2ccc(-c3ccccc3)cc2)C[C@H]1O (racemic) | 13.6 µM | 12.8 µM | 6.76 µM | 11.9 µM
4 | O=C(N[C@@H]1C[C@H](Oc2ccc(-c3ccccc3)cc2)C[C@H]1O)C(c1ccccc1)c1ccccc1 (racemic) | 12.3 µM | 13 µM | 8.91 µM | 12.2 µM
5 | O=C(N[C@H]1C[C@H](Oc2ccc(-c3ccccc3)cc2)C[C@@H]1O)C(c1ccccc1)c1ccccc1 (racemic) | 13.1 µM | 17.5 µM | 10.3 µM | 12.5 µM
6 | O=C(O)CCCc1ccc(N(CCCl)CCCl)cc1 [CHLORAMBUCIL] | 14.5 µM | 27.8 µM | – | –
7 | N[C@@H](Cc1ccc(N(CCCl)CCCl)cc1)C(=O)O [MELPHALAN] | 4 µM | – | – | 1.32 µM
